The source of these data is US4591601A, “Anticonvulsant dioxolane methane sulfamates” (McNeilab, Inc., priority 1985, dated 1986).

The experiment relates to tonic extensor seizure. Description: maximal electroshock test (MES), block of tonic extensor seizure. It is filed as in vivo, mice (male albino, Swiss Webster). To be noted: Mus musculus, ip, 0.5 h; mice, i.p., tested 30 minutes after injection; 1b in aqueous solution, Examples 2 and 3 as suspensions with Tween 80 and water; probit analysis. The method, then:
The compounds of formula (I) are useful as anticonvulsant agents. The anticonvulsant activity of the subject compounds was determined using a standard "maximal electroshock test" (MES). In this test, activity is indicated by a block of the tonic extensor seizure caused by application of an electric shock to mice via corneal electrodes, as described by Swinyard et al in J. Pharmacol. Exptl. Therap. 106, 319 (1952). A more recent description of current anticonvulsant drug screening is given in Swinyard et al in Epilepsia 19, 409 (1978). Non-fasted male albino mice of the Swiss Webster strain (Royal-Hart Laboratories, New Hampton, N.Y.) weighing 18-24 grams were used in this test. Six to eight groups of ten mice each were used per ED50 determination. The product of Example 1b was administered in aqueous solution while the compounds produced in Examples 2 and 3 were administered as suspensions prepared with Tween 80 and water. Testing was conducted at 30 minutes following intraperitoneal injection of the test compound. A group of ten mice injected with saline 10 ml/kg i.p. and tested 30 minutes later served as controls. ED50 's were calculated using a computerized probit analysis procedure.
(In general: Protection in the maximal electroshock model is a classic sign of anticonvulsant action.)
In general, ED50 refers to the dose at which the effect has come halfway, by size or by number of responders. Regarding `NS(=O)(=O)OCC1COC2(CCCCC2)O1` (stereo not drawn) [Example 3, (1,4-Dioxaspiro[4.5]dec-2-yl)methyl Sulfamic acid ester], the 50% effect level (ED50) was put at a dose of 169 mg/kg. Next, `CC1(C)OCC(COS(N)(=O)=O)O1` (stereo not drawn) [Example 1b, (2,2-Dimethyl-1,3-dioxolan-4-yl)methyl sulfamic acid ester]: 105 mg/kg; `CCCCCCCCCC1(C)OCC(COS(N)(=O)=O)O1` (stereo not drawn) [Example 2, (2-Methyl-2-nonyl-1,3-dioxolan-4-yl)methyl sulfamic acid ester Hydrate compound with 2-undecanone (10:1:2)]: 319 mg/kg.
